We go through 10 molecules from ChEMBL document CHEMBL2401697, “Indazoles as potential c-Met inhibitors: design, synthesis and molecular docking studies” (Eur J Med Chem, 2013).

For orientation: IC50 means the midpoint of a concentration-inhibition curve. A high value points to weaker potency in that assay.

The subject of this assay is MKN-45. Kind of assay: Cytotoxicity against human MKN45 cells after 1 hr by Western blotting analysis. The conditions noted are these: MKN-45, 1 h. A general note: In western blotting, separated proteins are transferred to a membrane and probed.
`c1cnc2ccc(Cn3cc4ccc(-c5cnn(CCOC6CCCCO6)c5)cc4n3)cc2c1` (stereo not given) came in with a concentration for half-maximal inhibition (IC50) of 12 µM. This lies in the double-digit micromolar range.
The molecule `CC(C)(C)[Si](C)(C)O[C@H]1CC[C@H](n2cc(-c3ccc4cn(Cc5ccc6ncccc6c5)nc4c3)cn2)CC1` came in with a 50% inhibitory concentration (IC50) of 1300 µM.
As for `O[C@H]1CC[C@H](n2cc(-c3ccc4cnn(Cc5ccc6ncccc6c5)c4c3)cn2)CC1`, the figure is 5.45 µM; as for `c1cnc2ccc(Cn3ncc4ccc(-c5cnn(CCOC6CCCCO6)c5)cc43)cc2c1` (stereo not given), 14 µM; as for `OCCn1cc(-c2ccc3cnn(Cc4ccc5ncccc5c4)c3c2)cn1`, 6.72 µM.
For `Cn1cc(-c2ccc3cnn(Cc4ccc5ncccc5c4)c3c2)cn1` the value was 12.9 µM; for `OCCn1cc(-c2ccc3cn(Cc4ccc5ncccc5c4)nc3c2)cn1`, 110 µM.
As for `CC(C)(C)[Si](C)(C)O[C@H]1CC[C@H](n2cc(-c3ccc4cnn(Cc5ccc6ncccc6c5)c4c3)cn2)CC1`, the figure is 11 µM; as for `O[C@H]1CC[C@H](n2cc(-c3ccc4cn(Cc5ccc6ncccc6c5)nc4c3)cn2)CC1`, 13.4 µM; as for `Cn1cc(-c2ccc3cn(Cc4ccc5ncccc5c4)nc3c2)cn1`, 106 µM.
